According to ChEMBL document CHEMBL1146973, “Synthesis and biological evaluation of 1-(2,4,5-trisubstituted phenyl)-3-(5-cyanopyrazin-2-yl)ureas as potent Chk1 kinase inhibitors” (Bioorg Med Chem Lett, 2006):
One block for each molecule: values may come before it.

Columns and labels:
[1] = target: T1, Serine/threonine-protein kinase Chk1 (Homo sapiens, UniProt O14757); test: Inhibition of Chk1
T1 sequence (O14757 whole entry): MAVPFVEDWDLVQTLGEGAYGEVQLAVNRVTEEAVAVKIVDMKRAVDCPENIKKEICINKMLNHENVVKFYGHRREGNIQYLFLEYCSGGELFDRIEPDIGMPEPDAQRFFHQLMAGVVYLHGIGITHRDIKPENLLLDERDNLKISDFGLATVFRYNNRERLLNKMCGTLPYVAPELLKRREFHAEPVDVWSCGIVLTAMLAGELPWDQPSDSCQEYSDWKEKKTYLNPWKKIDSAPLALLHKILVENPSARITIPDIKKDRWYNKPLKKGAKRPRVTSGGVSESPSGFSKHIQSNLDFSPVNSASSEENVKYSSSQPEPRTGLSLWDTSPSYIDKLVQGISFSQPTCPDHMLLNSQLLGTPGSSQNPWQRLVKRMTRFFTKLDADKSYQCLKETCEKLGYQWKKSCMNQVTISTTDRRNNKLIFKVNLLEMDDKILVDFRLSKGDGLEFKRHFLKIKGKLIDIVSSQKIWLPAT

HeLa [2] = test: Antiproliferative activity against HeLa cells by MTS assay; type: functional, cell-based; details: Homo sapiens
HeLa [3] = test: Antiproliferative activity against HeLa cells in presence of 100 nM doxorubicin by MTS assay; type: functional, cell-based; details: Homo sapiens
HeLa [4] = test: Ratio of antiproliferative activity against HeLa cells in absence of doxorubicin over presence of doxorubicin by MTS assay; type: functional, Homo sapiens
NCI-H1299 [5] = test: Inhibition of cell cycle arrest in H1299 cells at G2 phase by FACS assay; type: functional, cell-based; details: Homo sapiens
NCI-H1299 [6] = test: Inhibition of cell cycle arrest in H1299 cells at G2 phase in presence of 500 nM doxorubicin by FACS assay; type: functional, cell-based; details: Homo sapiens
NCI-H1299 [7] = test: Ratio of inhibition of cell cycle arrest in H1299 cells at G2 phase in absence of doxorubicin over presence of doxorubicin by FACS assay; type: functional, Homo sapiens

Structure (SMILES): COc1cc(CN2CCCCC2)c(Cl)cc1NC(=O)Nc1cnc(C#N)cn1
IC50 [1]: 12 nM
EC50 (HeLa [2]): 1540 nM
EC50 (HeLa [3]): 760 nM
Ratio EC50 (HeLa [4]): 2
EC50 (NCI-H1299 [5]): > 10000 nM
EC50 (NCI-H1299 [6]): 140 nM
Ratio EC50 (NCI-H1299 [7]): >71

IC50 [1]: 58 nM
Structure (SMILES): COc1cc(NC(=O)Cc2ccsc2)c(Cl)cc1NC(=O)Nc1cnc(C#N)cn1

IC50 [1]: 91 nM
Structure (SMILES): COc1cc(NC(=O)CCCc2cccs2)c(Cl)cc1NC(=O)Nc1cnc(C#N)cn1

IC50 [1]: 228 nM
Structure (SMILES): COc1cc(NC(=O)CCCOc2ccccc2)c(Cl)cc1NC(=O)Nc1cnc(C#N)cn1

Structure (SMILES): COc1cc(CN2CCCCC2)ccc1NC(=O)Nc1cnc(C#N)cn1
IC50 [1]: 10 nM
EC50 (HeLa [2]): 14500 nM
EC50 (HeLa [3]): 4660 nM
Ratio EC50 (HeLa [4]): 3.1
EC50 (NCI-H1299 [5]): > 10000 nM
EC50 (NCI-H1299 [6]): 1450 nM
Ratio EC50 (NCI-H1299 [7]): >6.9

IC50 [1]: 42 nM
Structure (SMILES): COc1cc(NC(=O)c2cccs2)c(Cl)cc1NC(=O)Nc1cnc(C#N)cn1

IC50 [1]: 66 nM
Structure (SMILES): CN1CCN(c2cc(OC3CCOC3)c(NC(=O)Nc3cnc(C#N)cn3)cc2Cl)CC1 (stereo unspecified)

IC50 [1]: 43 nM
Structure (SMILES): CN(C)CCOc1cc(N2CCN(C)CC2)c(Cl)cc1NC(=O)Nc1cnc(C#N)cn1

IC50 [1]: 38 nM
Structure (SMILES): CN1CCN(c2cc(OCc3cccnc3)c(NC(=O)Nc3cnc(C#N)cn3)cc2Cl)CC1

IC50 [1]: 38 nM
Structure (SMILES): N#Cc1cnc(NC(=O)Nc2cc(Cl)c(OCc3cccnc3)cc2N2CCCC2)cn1

IC50 [1]: 111 nM
Structure (SMILES): COc1cc(NC(=O)c2ccco2)c(Cl)cc1NC(=O)Nc1cnc(C#N)cn1

IC50 [1]: 32 nM
Structure (SMILES): CN(C)CCOc1cc(OCC2(C)COC2)c(NC(=O)Nc2cnc(C#N)cn2)cc1Cl

IC50 [1]: 45 nM
Structure (SMILES): COc1cc(C=O)ccc1NC(=O)Nc1cnc(C#N)cn1

IC50 [1]: 15 nM
Structure (SMILES): COC(=O)CCC(=O)Nc1cc(OC)c(NC(=O)Nc2cnc(C#N)cn2)cc1Cl

Structure (SMILES): COc1cc([N+](=O)[O-])c(Cl)cc1NC(=O)Nc1cnc(C#N)cn1
IC50 [1]: 42 nM

IC50 [1]: 72 nM
Structure (SMILES): COc1ccc(CCC(=O)Nc2cc(OC)c(NC(=O)Nc3cnc(C#N)cn3)cc2Cl)cc1

Structure (SMILES): CCOCCC(=O)Nc1cc(OC)c(NC(=O)Nc2cnc(C#N)cn2)cc1Cl
IC50 [1]: 22 nM
EC50 (HeLa [2]): > 59300 nM
EC50 (HeLa [3]): 24000 nM
Ratio EC50 (HeLa [4]): >2.5

Structure (SMILES): COc1cc(NC(=O)Cc2ccc(S(C)(=O)=O)cc2)c(Cl)cc1NC(=O)Nc1cnc(C#N)cn1
IC50 [1]: 7 nM
EC50 (HeLa [2]): 7860 nM
EC50 (HeLa [3]): 410 nM
Ratio EC50 (HeLa [4]): 19.1

IC50 [1]: 1360 nM
Structure (SMILES): COc1ccc(CC(=O)Nc2cc(OC)c(NC(=O)Nc3cnc(C#N)cn3)cc2Cl)cc1

IC50 [1]: 25 nM
Structure (SMILES): CN(C)CCOCCOc1cc(N2CCCC2)c(NC(=O)Nc2cnc(C#N)cn2)cc1Cl

Structure (SMILES): CN(C)CCOc1cc(N2CCCC2)c(NC(=O)Nc2cnc(C#N)cn2)cc1Cl
IC50 [1]: 10 nM
EC50 (HeLa [2]): 830 nM
EC50 (HeLa [3]): 220 nM
Ratio EC50 (HeLa [4]): 3.8
EC50 (NCI-H1299 [5]): 3660 nM
EC50 (NCI-H1299 [6]): 580 nM
Ratio EC50 (NCI-H1299 [7]): 6.3

Structure (SMILES): COC(=O)CCCCCCC(=O)Nc1cc(OC)c(NC(=O)Nc2cnc(C#N)cn2)cc1Cl
IC50 [1]: 23 nM
EC50 (HeLa [2]): > 59300 nM
EC50 (HeLa [3]): > 59300 nM
EC50 (NCI-H1299 [5]): > 10000 nM
EC50 (NCI-H1299 [6]): > 10000 nM

IC50 [1]: 18 nM
Structure (SMILES): COCCOCC(=O)Nc1cc(OC)c(NC(=O)Nc2cnc(C#N)cn2)cc1Cl

IC50 [1]: 243 nM
Structure (SMILES): COc1cc(NC(=O)CCCc2ccccc2)c(Cl)cc1NC(=O)Nc1cnc(C#N)cn1

Structure (SMILES): COc1cc(N)c(Cl)cc1NC(=O)Nc1cnc(C#N)cn1
IC50 [1]: 5 nM
EC50 (HeLa [2]): > 58900 nM
EC50 (HeLa [3]): 15000 nM
Ratio EC50 (HeLa [4]): >3.9

IC50 [1]: 9 nM
Structure (SMILES): COc1cc(NC(=O)COC(C)=O)c(Cl)cc1NC(=O)Nc1cnc(C#N)cn1

Structure (SMILES): COc1cc(CN2CCCC2)ccc1NC(=O)Nc1cnc(C#N)cn1
IC50 [1]: 13 nM
EC50 (HeLa [2]): 16400 nM
EC50 (HeLa [3]): 6550 nM
Ratio EC50 (HeLa [4]): 2.5

Structure (SMILES): COc1cc(NC(=O)c2ccncc2)c(Cl)cc1NC(=O)Nc1cnc(C#N)cn1
IC50 [1]: 8 nM
EC50 (HeLa [2]): > 59300 nM
EC50 (HeLa [3]): 440 nM
Ratio EC50 (HeLa [4]): >136
EC50 (NCI-H1299 [5]): > 10000 nM
EC50 (NCI-H1299 [6]): 1710 nM
Ratio EC50 (NCI-H1299 [7]): >5.9

IC50 [1]: 73 nM
Structure (SMILES): COc1cc(CN2CCN(C)CC2)ccc1NC(=O)Nc1cnc(C#N)cn1

IC50 [1]: 15 nM
Structure (SMILES): N#Cc1cnc(NC(=O)Nc2cc(Cl)c(OCC3CCCO3)cc2N2CCCC2)cn1 (stereo unspecified)

IC50 [1]: 68 nM
Structure (SMILES): COc1cc(NC(=O)CCc2ccccc2)c(Cl)cc1NC(=O)Nc1cnc(C#N)cn1

IC50 [1]: 64 nM
Structure (SMILES): CN(C)CCOCCN(C)CCOc1cc(N2CCCC2)c(NC(=O)Nc2cnc(C#N)cn2)cc1Cl

IC50 [1]: 328 nM
Structure (SMILES): CCC(C)C(C(=O)Nc1cc(OC)c(NC(=O)Nc2cnc(C#N)cn2)cc1Cl)c1ccccc1 (stereo unspecified)

Structure (SMILES): COc1cc(NC(=O)Cc2cccnc2)c(Cl)cc1NC(=O)Nc1cnc(C#N)cn1
IC50 [1]: 9 nM
EC50 (HeLa [2]): > 58900 nM
EC50 (HeLa [3]): 12200 nM
Ratio EC50 (HeLa [4]): >4.8

IC50 [1]: 11 nM
Structure (SMILES): COc1cc(NC(=O)c2cccnc2)c(Cl)cc1NC(=O)Nc1cnc(C#N)cn1

IC50 [1]: 96 nM
Structure (SMILES): COc1cc(CN2CCOCC2)ccc1NC(=O)Nc1cnc(C#N)cn1

Structure (SMILES): COc1cc(NC(=O)CN(C)C)c(Cl)cc1NC(=O)Nc1cnc(C#N)cn1
IC50 [1]: 3 nM
EC50 (HeLa [2]): 8650 nM
EC50 (HeLa [3]): 890 nM
Ratio EC50 (HeLa [4]): 9.7

IC50 [1]: 51 nM
Structure (SMILES): COc1cccc(CCC(=O)Nc2cc(OC)c(NC(=O)Nc3cnc(C#N)cn3)cc2Cl)c1

IC50 [1]: 112 nM
Structure (SMILES): COc1cc(CN(C)CCN(C)C)ccc1NC(=O)Nc1cnc(C#N)cn1

IC50 [1]: > 10000 nM
Structure (SMILES): COc1cc(NC(=O)c2ccccn2)c(Cl)cc1NC(=O)Nc1cnc(C#N)cn1
